Source: PMC8908507 (ACS Omega, 2022)
Entries after “also recorded” stand apart in the source; their conditions may differ.

What was measured:
MAO-B [1] = molecular target: T1, MAO-B (Homo sapiens, UniProt P27338); assay: MAO-B inhibition, recombinant enzyme, benzylamine substrate; type: biochemical; conditions: for SI (MAO-B compared with MAO-A): IC50 (MAO-A)/IC50 (MAO-B); for IC50: IC50 MAO-B; for remaining activity at 1 µM: read-out: residual activity (%) MAO-B
T1 sequence (P27338 1-520): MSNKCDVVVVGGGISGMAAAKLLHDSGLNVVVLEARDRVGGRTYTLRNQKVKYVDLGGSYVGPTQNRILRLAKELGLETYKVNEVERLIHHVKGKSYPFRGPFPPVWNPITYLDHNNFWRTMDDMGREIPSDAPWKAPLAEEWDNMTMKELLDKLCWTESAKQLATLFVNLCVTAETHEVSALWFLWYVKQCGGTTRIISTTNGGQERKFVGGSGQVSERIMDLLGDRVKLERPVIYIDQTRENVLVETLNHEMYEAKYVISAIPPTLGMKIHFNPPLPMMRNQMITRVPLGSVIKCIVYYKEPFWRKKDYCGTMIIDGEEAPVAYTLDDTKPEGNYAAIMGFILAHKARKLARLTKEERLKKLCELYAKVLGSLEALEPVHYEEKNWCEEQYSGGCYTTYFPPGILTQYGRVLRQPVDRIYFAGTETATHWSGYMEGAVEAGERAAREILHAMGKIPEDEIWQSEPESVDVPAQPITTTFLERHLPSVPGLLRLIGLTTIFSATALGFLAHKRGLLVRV

BChE = BChE (Equus caballus, UniProt P81908); conditions: 10 μM
MAO-A = molecular target: T2, MAO-A (Homo sapiens, UniProt P21397); assay: biochemical; conditions: for remaining activity at 10 µM: read-out: residual activity (%) MAO-A
T2 sequence (P21397 1-527): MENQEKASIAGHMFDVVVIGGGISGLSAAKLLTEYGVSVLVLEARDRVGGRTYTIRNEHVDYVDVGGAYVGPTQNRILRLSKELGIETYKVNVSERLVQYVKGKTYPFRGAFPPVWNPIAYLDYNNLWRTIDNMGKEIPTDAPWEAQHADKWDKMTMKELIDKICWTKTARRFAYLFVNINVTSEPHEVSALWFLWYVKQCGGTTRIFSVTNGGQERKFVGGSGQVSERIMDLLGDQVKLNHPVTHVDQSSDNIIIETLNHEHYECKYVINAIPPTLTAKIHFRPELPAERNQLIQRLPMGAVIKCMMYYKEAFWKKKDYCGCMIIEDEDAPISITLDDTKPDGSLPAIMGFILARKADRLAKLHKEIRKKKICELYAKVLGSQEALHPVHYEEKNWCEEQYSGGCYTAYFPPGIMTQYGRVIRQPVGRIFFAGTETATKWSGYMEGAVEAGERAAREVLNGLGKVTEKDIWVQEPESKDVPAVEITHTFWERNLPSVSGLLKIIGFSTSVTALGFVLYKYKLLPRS

BACE1 = BACE1 (Homo sapiens, UniProt P56817); assay: biochemical; conditions: read-out: residual activity (%) BACE1
AChE = AChE (Electrophorus electricus, UniProt O42275); assay: AChE inhibition; conditions: 10 μM
Vero cells [2] = assay: Cytotoxicity on Vero cells, MTT method; type: cell-based, African green monkey; conditions: 100 μg/mL, 24 h
Vero cells [3] = assay: Intracellular ROS assay in H2O2-treated Vero cells; type: cell-based, African green monkey; conditions: 24 h drug treatment, vs H2O2-treated control
MAO-B [4] = molecular target: T1, MAO-B; assay: Reversibility of MAO-B inhibition by dialysis; type: biochemical
[5] = Cytotoxicity on Vero cells, MTT method; type: cell-based, African green monkey; conditions: African green monkey, Vero cells (normal kidney epithelial cell line)

AChE, sequence (O42275 24-633): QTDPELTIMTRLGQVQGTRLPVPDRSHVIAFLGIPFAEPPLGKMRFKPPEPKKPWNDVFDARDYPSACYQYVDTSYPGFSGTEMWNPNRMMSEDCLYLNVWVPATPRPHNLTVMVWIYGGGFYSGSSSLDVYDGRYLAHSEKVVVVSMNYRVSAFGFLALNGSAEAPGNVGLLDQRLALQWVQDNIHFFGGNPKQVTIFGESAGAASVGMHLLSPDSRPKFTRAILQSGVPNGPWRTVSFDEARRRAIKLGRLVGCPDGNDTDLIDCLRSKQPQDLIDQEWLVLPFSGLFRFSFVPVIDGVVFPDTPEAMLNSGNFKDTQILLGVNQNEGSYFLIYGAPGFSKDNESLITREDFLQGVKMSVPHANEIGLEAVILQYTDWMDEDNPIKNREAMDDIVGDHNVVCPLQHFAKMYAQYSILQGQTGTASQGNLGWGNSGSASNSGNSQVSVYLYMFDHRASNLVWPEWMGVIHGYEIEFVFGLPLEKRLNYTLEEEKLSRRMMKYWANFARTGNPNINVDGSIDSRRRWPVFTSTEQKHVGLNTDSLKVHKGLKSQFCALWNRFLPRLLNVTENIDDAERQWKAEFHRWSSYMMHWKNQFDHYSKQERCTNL
BACE1, sequence (P56817 46-501): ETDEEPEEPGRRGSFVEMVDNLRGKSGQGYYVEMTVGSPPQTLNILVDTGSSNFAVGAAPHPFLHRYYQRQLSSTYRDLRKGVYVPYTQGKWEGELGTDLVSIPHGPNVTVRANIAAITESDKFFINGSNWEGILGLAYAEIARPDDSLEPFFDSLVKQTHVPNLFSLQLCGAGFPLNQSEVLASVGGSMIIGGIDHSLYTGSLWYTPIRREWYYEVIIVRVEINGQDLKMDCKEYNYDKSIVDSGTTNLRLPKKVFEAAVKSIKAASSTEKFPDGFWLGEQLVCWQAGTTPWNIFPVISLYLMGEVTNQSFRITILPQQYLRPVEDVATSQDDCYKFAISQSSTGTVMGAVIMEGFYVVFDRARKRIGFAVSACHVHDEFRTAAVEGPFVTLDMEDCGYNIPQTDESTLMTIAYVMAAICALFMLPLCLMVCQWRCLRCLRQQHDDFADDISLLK
BChE, sequence (P81908 whole entry): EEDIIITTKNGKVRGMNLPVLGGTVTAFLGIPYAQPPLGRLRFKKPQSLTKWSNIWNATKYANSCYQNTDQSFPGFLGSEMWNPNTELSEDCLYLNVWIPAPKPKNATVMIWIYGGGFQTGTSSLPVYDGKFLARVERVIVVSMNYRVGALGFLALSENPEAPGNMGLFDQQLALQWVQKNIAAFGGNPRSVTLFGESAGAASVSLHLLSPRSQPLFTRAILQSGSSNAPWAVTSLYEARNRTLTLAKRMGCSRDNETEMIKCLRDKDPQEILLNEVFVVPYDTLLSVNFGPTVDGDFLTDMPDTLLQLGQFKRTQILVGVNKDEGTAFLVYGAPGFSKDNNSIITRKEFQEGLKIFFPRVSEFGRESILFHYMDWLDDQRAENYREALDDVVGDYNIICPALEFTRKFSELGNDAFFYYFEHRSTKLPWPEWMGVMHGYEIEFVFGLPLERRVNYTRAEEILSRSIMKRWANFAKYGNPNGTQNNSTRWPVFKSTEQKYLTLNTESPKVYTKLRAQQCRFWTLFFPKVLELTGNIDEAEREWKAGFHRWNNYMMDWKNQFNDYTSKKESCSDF

Structure (SMILES): O=C(/C=C/C=C/c1ccccc1)c1ccc(Cl)cc1 [MK1, (2E,4E)-1-(4-Chlorophenyl)-5-phenylpenta-2,4-dien-1-one]
- SI (MAO-B compared with MAO-A) (MAO-B [1]): 1498.2
- IC50 (MAO-B [1]): 11.2 ± 1.65 nM
- remaining activity at 1 µM (MAO-B [1]): 2.17 ± 1.49%
- residual activity (%) BChE (BChE): 94.1 ± 4.72%
- IC50 (MAO-A): 16.7 ± 0.4 µM
- remaining activity at 10 µM (MAO-A): 83 ± 2.71%
- remaining activity at 10 µM (BACE1): 77.1 ± 0.0087%
- residual activity (%) AChE (AChE): 84.0 ± 0.23%

Structure (SMILES): O=C(/C=C/C=C/c1ccc(Br)cc1)c1ccc(Cl)cc1 [MK2, (2E,4E)-5-(4-Bromophenyl)-1-(4-chlorophenyl)penta-2,4-dien-1-one]
- SI (MAO-B compared with MAO-A) (MAO-B [1]): 232.4
- IC50 (MAO-B [1]): 101 ± 1.63 nM
- remaining activity at 1 µM (MAO-B [1]): 14.3 ± 0.43%
- residual activity (%) BChE (BChE): 95.4 ± 2.86%
- IC50 (MAO-A): 23.5 ± 0.86 µM
- remaining activity at 10 µM (MAO-A): 97.8 ± 0.16%
- remaining activity at 10 µM (BACE1): 81.4 ± 0.97%
- residual activity (%) AChE (AChE): 82.4 ± 0.98%

Structure (SMILES): COc1ccc(/C=C/C=C/C(=O)c2ccc(Cl)cc2)cc1 [MK3, (2E,4E)-1-(4-Chlorophenyl)-5-(4-methoxyphenyl)penta-2,4-dien-1-one]
- SI (MAO-B compared with MAO-A) (MAO-B [1]): 1290.2
- IC50 (MAO-B [1]): 13.1 ± 0.81 nM
- remaining activity at 1 µM (MAO-B [1]): 5.81 ± 0.27%
- residual activity (%) BChE (BChE): 83.2 ± 0.46%
- IC50 (MAO-A): 16.9 ± 0.5 µM
- remaining activity at 10 µM (MAO-A): 73.6 ± 2.83%
- remaining activity at 10 µM (BACE1): 84.8 ± 0.53%
- residual activity (%) AChE (AChE): 81.4 ± 1.06%

Structure (SMILES): O=C(/C=C/C=C/c1ccc(F)cc1)c1ccc(Cl)cc1 [MK4, (2E,4E)-1-(4-Chlorophenyl)-5-(4-fluorophenyl)penta-2,4-dien-1-one]
- SI (MAO-B compared with MAO-A) (MAO-B [1]): 1609.8
- IC50 (MAO-B [1]): 9.67 ± 0.47 nM
- remaining activity at 1 µM (MAO-B [1]): 1.61 ± 2.28%
- residual activity (%) BChE (BChE): 94.9 ± 7.16%
- IC50 (MAO-A): 15.6 ± 0.63 µM
- remaining activity at 10 µM (MAO-A): 77 ± 6.2%
- remaining activity at 10 µM (BACE1): 72.5 ± 0.9%
- residual activity (%) AChE (AChE): 90.7 ± 0.57%

Structure (SMILES): O=C(/C=C/C=C/c1ccc([N+](=O)[O-])cc1)c1ccc(Cl)cc1 [MK5, (2E,4E)-1-(4-Chlorophenyl)-5-(4-nitrophenyl)penta-2,4-dien-1-one]
- SI (MAO-B compared with MAO-A) (MAO-B [1]): 4783.0
- IC50 (MAO-B [1]): 4.02 ± 0.13 nM
- remaining activity at 1 µM (MAO-B [1]): 5.81 ± 0.27%
- toxicity by cellular morphology, phase-contrast microscopy (Vero cells [2]): no signs of toxicity
- intracellular ROS scavenging (Vero cells [3]): significant scavenging effect of reactive oxygen species; also recorded: significant ROS scavenging effect
- residual activity (%) BChE (BChE): 71.6 ± 1.05%
- IC50 (MAO-A): 19.2 ± 0.94 µM
- remaining activity at 10 µM (MAO-A): 72.9 ± 0.44%
- remaining activity at 10 µM (BACE1): 73.3 ± 2.51%
- residual activity (%) AChE (AChE): 74.1 ± 1.42%

Structure (SMILES): O=C(/C=C/C=C/c1ccccc1)c1ccc(Br)cc1 [MK6, (2E,4E)-1-(4-Bromophenyl)-5-phenylpenta-2,4-dien-1-one]
- relative MAO-B activity, dialyzed (AD) (MAO-B [4]; MK6/MK12 6.0 nM, lazabemide 0.22 μM, pargyline 0.28 μM, after dialysis): 79.2%
- relative MAO-B activity, undialyzed (AU) (MAO-B [4]; MK6/MK12 6.0 nM, lazabemide 0.22 μM, pargyline 0.28 μM, preincubation 30 min): 34.9%
- reversibility of MAO-B inhibition (MAO-B [4]; dialysis): reversible inhibitors
- viability at 24 h, 80 μg/mL [5]: > 70%
- toxicity by cellular morphology, phase-contrast microscopy (Vero cells [2]): no signs of toxicity
- intracellular ROS scavenging (Vero cells [3]): significant scavenging effect of reactive oxygen species; also recorded: significant ROS scavenging effect
- residual activity (%) BChE (BChE): 97.5 ± 3.58%
- IC50 (MAO-A): 20.6 ± 1.02 µM
- remaining activity at 10 µM (MAO-A): 84 ± 1.22%
- remaining activity at 10 µM (BACE1): 74.1 ± 1.48%
- residual activity (%) AChE (AChE): 74.7 ± 0.66%

Structure (SMILES): O=C(/C=C/C=C/c1ccc(Br)cc1)c1ccc(Br)cc1 [MK7, (2E,4E)-1,5-Bis(4-bromophenyl)penta-2,4-dien-1-one]
- SI (MAO-B compared with MAO-A) (MAO-B [1]): 1400.0
- IC50 (MAO-B [1]): 15.5 ± 0.06 nM
- remaining activity at 1 µM (MAO-B [1]): 8.9 ± 0.15%
- residual activity (%) BChE (BChE): 99.2 ± 1.09%
- IC50 (MAO-A): 21.7 ± 2.01 µM
- remaining activity at 10 µM (MAO-A): 85.4 ± 1.99%
- remaining activity at 10 µM (BACE1): 84.5 ± 0.91%
- residual activity (%) AChE (AChE): 75.8 ± 0.73%
